The target of test [1] is Human α2δ-1 subunit of Cav2.2 calcium channel (Homo sapiens, UniProt P54289). The test is described as follows: Human α2δ-1 subunit of Cav2.2 calcium channel assay ([3H]-Gabapentin binding). Conditions: human α2δ-1 enriched membranes, 15 nM [3H]-Gabapentin, binding expressed as Ki; read-out: α2δ1 binding activity. The protocol: Human α2δ-1 Subunit of Cav2.2 Calcium Channel Assay
Human α2δ-1 enriched membranes (2.5 μg) were incubated with 15 nM of radiolabeled [3H]-Gabapentin in assay buffer containing Hepes-KOH 10 mM, pH 7.4. NSB (non specific binding) was measured by adding 10 μM pregabalin. The binding of the test compound was measured at five different concentrations. After 60 min incubation at 27° C., binding reaction was terminated by filtering through Multiscreen GF/C (Millipore) presoaked in 0.5% polyethyleneimine in Vacuum Manifold Station, followed by 3 washes with ice-cold filtration buffer containing 50 mM Tris-HCl, pH 7.4. Filter plates were dried at 60° C. for 1 hour and 30 μl of scintillation cocktail were added to each well before radioactivity reading. Readings were performed in a Trilux 1450 Microbeta radioactive counter (Perkin Elmer).

The next test deals with T1, human μ-opioid receptor (Homo sapiens, UniProt P35372).
T1 construct: expressed in transfected cells; host or cells: CHO-K1
T1 sequence (P35372 whole entry): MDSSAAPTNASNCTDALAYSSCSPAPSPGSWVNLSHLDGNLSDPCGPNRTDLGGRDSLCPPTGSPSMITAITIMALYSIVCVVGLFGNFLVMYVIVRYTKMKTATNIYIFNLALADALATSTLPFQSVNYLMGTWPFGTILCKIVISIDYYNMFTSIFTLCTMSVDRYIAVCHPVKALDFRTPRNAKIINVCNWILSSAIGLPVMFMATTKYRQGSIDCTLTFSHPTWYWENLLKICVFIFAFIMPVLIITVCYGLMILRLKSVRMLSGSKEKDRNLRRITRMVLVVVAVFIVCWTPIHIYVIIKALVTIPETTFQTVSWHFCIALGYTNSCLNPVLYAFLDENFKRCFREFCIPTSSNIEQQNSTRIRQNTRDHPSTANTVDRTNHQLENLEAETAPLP
The test is described as follows: Human μ-opioid receptor radioligand assay ([3H]-DAMGO). In kind it is binding. The protocol:
Human μ-Opioid Receptor Radioligand Assay
To investigate binding properties of test compounds to human μ-opioid receptor, transfected CHO-K1 cell membranes and [^3H]-DAMGO (Perkin Elmer, ES-542-C), as the radioligand, were used. The assay was carried out with 20 μg of membrane suspension, 1 nM of [^3H]-DAMGO in either absence or presence of either buffer or 10 μM Naloxone for total and non-specific binding, respectively. Binding buffer contained Tris-HCl 50 mM, MgCl2 5 mM at pH 7.4. Plates were incubated at 27° C. for 60 minutes. After the incubation period, the reaction mix was then transferred to MultiScreen HTS, FC plates (Millipore), filtered and plates were washed 3 times with ice-cold 10 mM Tris-HCL (pH 7.4). Filters were dried and counted at approximately 40% efficiency in a MicroBeta scintillation counter (Perkin-Elmer) using EcoScint liquid scintillation cocktail. Preferably, transfected CHO-K1 cell membranes (20 μg) were incubated with 1 nM of [^3H]-DAMGO in assay buffer containing Tris-HCl 50 mM, MgCl2 5 mM at pH 7.4. NBS (non-specific binding) was measured by adding 10 μM Naloxone. The binding of the test compound was measured at five different concentrations. Plates were incubated at 27° C. for 60 minutes. After the incubation period, the reaction mix was then transferred to MultiScreen HTS, FC plates (Millipore), filtered and plates were washed 3 times with ice-cold 10 mM Tris-HCL (pH 7.4). Filters were dried and counted at approximately 40% efficiency in a MicroBeta scintillation counter (Perkin-Elmer) using EcoScint liquid scintillation cocktail.

Setting [2] is: transfected CHO-K1 cell membranes, 1 nM [3H]-DAMGO, binding expressed as Ki, read-out: Mu binding activity.

Read-outs that look alike come from different tables or passages of the source.

The source of these data is US20200190087A1 (priority 2016, published 2020).

Human α2δ-1 subunit of Cav2.2 calcium channel, sequence (P54289 25-1103): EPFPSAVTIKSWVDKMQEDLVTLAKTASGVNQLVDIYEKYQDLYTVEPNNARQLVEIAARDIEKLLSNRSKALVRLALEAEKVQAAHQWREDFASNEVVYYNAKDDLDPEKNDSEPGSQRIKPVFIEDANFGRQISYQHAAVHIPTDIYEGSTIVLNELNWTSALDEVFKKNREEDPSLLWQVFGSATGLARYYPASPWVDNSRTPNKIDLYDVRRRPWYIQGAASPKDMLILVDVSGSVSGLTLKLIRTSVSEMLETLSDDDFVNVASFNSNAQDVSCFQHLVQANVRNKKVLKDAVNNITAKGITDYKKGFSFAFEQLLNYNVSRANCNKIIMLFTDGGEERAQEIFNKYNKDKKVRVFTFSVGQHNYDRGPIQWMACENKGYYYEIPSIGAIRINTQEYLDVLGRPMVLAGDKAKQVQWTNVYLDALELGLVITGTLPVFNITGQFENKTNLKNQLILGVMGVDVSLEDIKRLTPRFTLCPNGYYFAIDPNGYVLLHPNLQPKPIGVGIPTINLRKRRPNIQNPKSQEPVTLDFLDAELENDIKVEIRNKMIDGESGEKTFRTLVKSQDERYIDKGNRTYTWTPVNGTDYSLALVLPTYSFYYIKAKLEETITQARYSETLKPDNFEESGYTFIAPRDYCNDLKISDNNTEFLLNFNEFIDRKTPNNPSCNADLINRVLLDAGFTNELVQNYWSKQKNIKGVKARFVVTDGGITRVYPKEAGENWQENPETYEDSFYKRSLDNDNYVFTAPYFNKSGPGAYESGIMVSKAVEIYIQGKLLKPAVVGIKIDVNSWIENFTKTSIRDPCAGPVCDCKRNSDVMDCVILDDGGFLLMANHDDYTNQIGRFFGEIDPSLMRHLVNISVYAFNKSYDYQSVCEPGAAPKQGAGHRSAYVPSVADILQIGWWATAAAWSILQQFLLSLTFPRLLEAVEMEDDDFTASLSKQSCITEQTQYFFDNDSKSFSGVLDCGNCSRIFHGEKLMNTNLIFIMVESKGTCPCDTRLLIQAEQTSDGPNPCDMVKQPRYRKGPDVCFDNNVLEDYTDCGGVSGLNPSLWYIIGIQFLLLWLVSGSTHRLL

For the compound `CCOc1ccc(-n2nc3c(C4=CCN(C(=O)OC(C)(C)C)CC4)nnc(C)c3c2C)c(F)c1` [Ex 1, tert-Butyl 4-(2-(4-ethoxy-2-fluorophenyl)-3,4-dimethyl-2H-pyrazolo[3,4-d]pyridazin-7-yl)-3,6-dihydropyridine-1(2H)-carboxylate], the Ki is not below 5000 nM in test [1] and more than 500 nM at human μ-opioid receptor (setting [2]).

As to `CCOc1ccc(-n2nc3c(C4=CCN(C)CC4)nnc(C)c3c2C)c(F)c1` [Ex 2, 2-(4-Ethoxy-2-fluorophenyl)-3,4-dimethyl-7-(1-methyl-1,2,3,6-tetrahydropyridin-4-yl)-2H-pyrazolo[3,4-d]pyridazine], the Ki in test [1] was not below 5000 nM; at human μ-opioid receptor (setting [2]), more than 500 nM.

In the case of `CCOc1ccc(-n2nc3c(C4=CN(C(=O)OC(C)(C)C)CCC4)nnc(C)c3c2C)c(F)c1` [Ex 3, tert-Butyl 5-(2-(4-ethoxy-2-fluorophenyl)-3,4-dimethyl-2H-pyrazolo[3,4-d]pyridazin-7-yl)-3,4-dihydropyridine-1(2H)-carboxylate], the figures for the Ki (in test [1]; at human μ-opioid receptor (setting [2])) were not below 5000 nM and more than 500 nM, respectively.

Take `CCOc1ccc(-n2nc3c(/C=C/CNC(=O)OC(C)(C)C)nnc(C)c3c2C)c(F)c1` [Ex 4, tert-Butyl (E)-(3-(2-(4-ethoxy-2-fluorophenyl)-3,4-dimethyl-2H-pyrazolo[3,4-d]pyridazin-7-yl)allyl)carbamate]: the results for the Ki (in test [1]; at human μ-opioid receptor (setting [2])) were not below 5000 nM and more than 500 nM, respectively.

As to `CCOc1ccc(-n2nc3c(/C=C/CN(C)C(=O)OC(C)(C)C)nnc(C)c3c2C)c(F)c1` [Ex 5, tert-Butyl (E)-(3-(2-(4-ethoxy-2-fluorophenyl)-3,4-dimethyl-2H-pyrazolo[3,4-d]pyridazin-7-yl)allyl)(methyl)carbamate], the Ki was not below 5000 nM in test [1] and more than 500 nM at human μ-opioid receptor (setting [2]).

As for `CCOc1ccc(-n2nc3c(-c4ccc(CN(C)C)cc4)nnc(C)c3c2C)c(F)c1` [Ex 6, 1-(4-(2-(4-Ethoxy-2-fluorophenyl)-3,4-dimethyl-2H-pyrazolo[3,4-d]pyridazin-7-yl)phenyl)-N,N-dimethylmethanamine], the Ki in test [1] was 500 to 3000 nM; at human μ-opioid receptor (setting [2]), more than 500 nM.

Regarding `CCOc1ccc(-n2nc3c(-c4ccc(CCN(C)C)cc4)nnc(C)c3c2C)c(F)c1` [Ex 7, 2-(4-(2-(4-Ethoxy-2-fluorophenyl)-3,4-dimethyl-2H-pyrazolo[3,4-d]pyridazin-7-yl)phenyl)-N,N-dimethylethan-1-amine], the results for the Ki (in test [1]; at human μ-opioid receptor (setting [2])) were 500 to 3000 nM and more than 500 nM, respectively.

`CCOc1ccc(-n2nc3c(-c4cccc(CN(C)C)c4)nnc(C)c3c2C)c(F)c1` [Ex 8, 1-(3-(2-(4-Ethoxy-2-fluorophenyl)-3,4-dimethyl-2H-pyrazolo[3,4-d]pyridazin-7-yl)phenyl)-N,N-dimethylmethanamine]: the Ki in test [1] was 500 to 3000 nM; at human μ-opioid receptor (setting [2]) it was more than 500 nM.

In the case of `CCOc1ccc(-n2nc3c(-c4cccc(CCN(C)C)c4)nnc(C)c3c2C)c(F)c1` [Ex 9, 2-(3-(2-(4-Ethoxy-2-fluorophenyl)-3,4-dimethyl-2H-pyrazolo[3,4-d]pyridazin-7-yl)phenyl)-N,N-dimethylethan-1-amine], the figures for the Ki (in test [1]; on human μ-opioid receptor (setting [2])) were 500 to 3000 nM and more than 500 nM, respectively.

As for `CCOc1ccc(-n2nc3c(-c4ccc5ncn(CCN(C)C)c5c4)nnc(C)c3c2C)c(F)c1` [Ex 10, 2-(6-(2-(4-Ethoxy-2-fluorophenyl)-3,4-dimethyl-2H-pyrazolo[3,4-d]pyridazin-7-yl)-1H-benzo[d]imidazol-1-yl)-N,N-dimethylethan-1-amine], the Ki in test [1] was 3000 to 5000 nM; at human μ-opioid receptor (setting [2]), more than 500 nM.

On to `CCOc1ccc(-n2nc3c(-c4ccc5ncn(CCNC(=O)OC(C)(C)C)c5c4)nnc(C)c3c2C)c(F)c1` [Ex 11, tert-butyl (2-(6-(2-(4-ethoxy-2-fluorophenyl)-3,4-dimethyl-2H-pyrazolo[3,4-d]pyridazin-7-yl)-1H-benzo[d]imidazol-1-yl)ethyl)carbamate], for which the Ki is more than 5000 nM in test [1] and more than 500 nM on human μ-opioid receptor (setting [2]).

As for `CCOc1ccc(-n2nc3c(C4CN(C(=O)OC(C)(C)C)C4)nnc(C)c3c2C)c(F)c1` [Ex 12, tert-Butyl 3-(2-(4-ethoxy-2-fluorophenyl)-3,4-dimethyl-2H-pyrazolo[3,4-d]pyridazin-7-yl)azetidine-1-carboxylate], the results for the Ki (in test [1]; on human μ-opioid receptor (setting [2])) were not below 5000 nM and more than 500 nM, respectively.

For the compound `CCOc1ccc(-n2nc3c(C4CCN(C(=O)OC(C)(C)C)CC4)nnc(C)c3c2C)c(F)c1` [Ex 13, tert-Butyl 4-(2-(4-ethoxy-2-fluorophenyl)-3,4-dimethyl-2H-pyrazolo[3,4-d]pyridazin-7-yl)piperidine-1-carboxylate], the Ki is not below 5000 nM in test [1] and more than 500 nM on human μ-opioid receptor (setting [2]).

For `CCOc1ccc(-n2nc3c(C4CCN(C)CC4)nnc(C)c3c2C)c(F)c1` [Ex 14, 2-(4-Ethoxy-2-fluorophenyl)-3,4-dimethyl-7-(1-methylpiperidin-4-yl)-2H-pyrazolo[3,4-d]pyridazine], the Ki was 500 to 3000 nM in test [1] and more than 500 nM at human μ-opioid receptor (setting [2]).

Consider `CCOc1ccc(-n2nc3c(C4CCCN(C(=O)OC(C)(C)C)C4)nnc(C)c3c2C)c(F)c1` (centres unmarked) [Ex 15, tert-Butyl-3-(2-(4-ethoxy-2-fluorophenyl)-3,4-dimethyl-2H-pyrazolo[3,4-d]pyridazin-7-yl)piperidine-1-carboxylate], for which the Ki in test [1] was not below 5000 nM; on human μ-opioid receptor (setting [2]) it was more than 500 nM.

Turning to `CCOc1ccc(-n2nc3c(CCCNC(=O)OC(C)(C)C)nnc(C)c3c2C)c(F)c1` [Ex 16, tert-Butyl-(3-(2-(4-ethoxy-2-fluorophenyl)-3,4-dimethyl-2H-pyrazolo[3,4-d]pyridazin-7-yl)propyl)carbamate], the Ki in test [1] is not below 5000 nM; on human μ-opioid receptor (setting [2]) it was more than 500 nM.

On to `CCOc1ccc(-n2nc3c(CCCN(C)C(=O)OC(C)(C)C)nnc(C)c3c2C)c(F)c1` [Ex 17, tert-Butyl-(3-(2-(4-ethoxy-2-fluorophenyl)-3,4-dimethyl-2H-pyrazolo[3,4-d]pyridazin-7-yl)propyl)(methyl)carbamate], for which the values for the Ki (in test [1]; on human μ-opioid receptor (setting [2])) were not below 5000 nM and more than 500 nM, respectively.

Consider `CCOc1ccc(-n2nc3c(C4CCNCC4)nnc(C)c3c2C)c(F)c1` [Ex 18, 2-(4-Ethoxy-2-fluorophenyl)-3,4-dimethyl-7-(piperidin-4-yl)-2H-pyrazolo[3,4-d]pyridazine], for which the results for the Ki (in test [1]; on human μ-opioid receptor (setting [2])) were 500 to 3000 nM and more than 500 nM, respectively.

Turning to `CCOc1ccc(-n2nc3c(C4CCCNC4)nnc(C)c3c2C)c(F)c1` (centres unmarked) [Ex 19, 2-(4-Ethoxy-2-fluorophenyl)-3,4-dimethyl-7-(piperidin-3-yl)-2H-pyrazolo[3,4-d]pyridazine], the values for the Ki (in test [1]; at human μ-opioid receptor (setting [2])) were not below 5000 nM and more than 500 nM, respectively.

In the case of `CCOc1ccc(-n2nc3c(CCCN)nnc(C)c3c2C)c(F)c1` [Ex 20, 3-(2-(4-Ethoxy-2-fluorophenyl)-3,4-dimethyl-2H-pyrazolo[3,4-d]pyridazin-7-yl)propan-1-amine], the values for the Ki (in test [1]; on human μ-opioid receptor (setting [2])) were 500 to 3000 nM and more than 500 nM, respectively.

With `CCOc1ccc(-n2nc3c(CCCNC)nnc(C)c3c2C)c(F)c1` [Ex 21, 3-(2-(4-Ethoxy-2-fluorophenyl)-3,4-dimethyl-2H-pyrazolo[3,4-d]pyridazin-7-yl)-N-methylpropan-1-amine], the Ki in test [1] is not below 5000 nM; on human μ-opioid receptor (setting [2]), more than 500 nM.

Regarding `CCOc1ccc(-n2nc3c(C4CNC4)nnc(C)c3c2C)c(F)c1` [Ex 22, 7-(Azetidin-3-yl)-2-(4-ethoxy-2-fluorophenyl)-3,4-dimethyl-2H-pyrazolo[3,4-d]pyridazine], the figures for the Ki (in test [1]; on human μ-opioid receptor (setting [2])) were not below 5000 nM and more than 500 nM, respectively.

As for `CCOc1ccc(-n2nc3c(CCN)nnc(C)c3c2C)c(F)c1` [Ex 23, 2-(2-(4-Ethoxy-2-fluorophenyl)-3,4-dimethyl-2H-pyrazolo[3,4-d]pyridazin-7-yl)ethan-1-amine], the Ki in test [1] is not below 5000 nM; on human μ-opioid receptor (setting [2]), more than 500 nM.

Consider `CCOc1ccc(-n2nc3c(-c4ccc5ncn(CCN)c5c4)nnc(C)c3c2C)c(F)c1` [Ex 24, 2-(6-(2-(4-Ethoxy-2-fluorophenyl)-3,4-dimethyl-2H-pyrazolo[3,4-d]pyridazin-7-yl)-1H-benzo[d]imidazol-1-yl)ethan-1-amine], for which the Ki was 3000 to 5000 nM in test [1] and more than 500 nM at human μ-opioid receptor (setting [2]).

Consider `CCOc1ccc(-n2nc3c(C4CCN(CCc5ccccc5)CC4)nnc(C)c3c2C)c(F)c1` [Ex 25, 2-(4-Ethoxy-2-fluorophenyl)-3,4-dimethyl-7-(1-phenethylpiperidin-4-yl)-2H-pyrazolo[3,4-d]pyridazine], for which the Ki in test [1] was 500 to 3000 nM; on human μ-opioid receptor, less than 500 nM.
